# Measurements from paper PMC2954496 (Bioorganic & medicinal chemistry, 2010).
# Columns and labels:
# [1] = Water solubility analysis by HPLC; type: physicochemical
# HIV-RT = settings: preliminary mechanism of action studies; cited from earlier work
solubility at 1 h [1] [µg/mL],SMILES,Inhibition of HIV-RT DNA-dependent DNA polymerase activity (HIV-RT)
5.2,"Cc1cc(=O)c2c(C)cc3c(c2o1)[C@@H](OC(=O)[C@@]12CC[C@@](C)(C(=O)O1)C2(C)C)[C@@H](OC(=O)[C@@]12CC[C@@](C)(C(=O)O1)C2(C)C)C(C)(C)O3 [Compound 5, 3′R,4′R-Di-O-(−)-camphanoyl-2,5,2′,2′-tetramethyldihydropyrano[2,3-f]chromone]",
,"Cc1cc(=O)oc2c3c(ccc12)OC(C)(C)[C@H](OC(=O)[C@@]12CC[C@@](C)(C(=O)O1)C2(C)C)[C@@H]3OC(=O)[C@@]12CC[C@@](C)(C(=O)O1)C2(C)C [Compound 4-MDCK, 4-methyl DCK]",inhibited
